Consider 34 molecules from patent publication US9376387B2 (priority 2013, dated 2016).

In test [1] the target is T1, hAChE (human erythrocyte membranes as a AChE source) (Homo sapiens, UniProt P22303).
T1 construct: human erythrocyte membranes as a AChE source; from tissue; host or cells: human erythrocyte membranes
In words: acetylcholinesterase (AChE) activity, modified Ellman method. Type of test: biochemical. For orientation: Ellman's reagent forms a yellow product with free thiols.

A further test has as its target EqBuChE (Equus caballus, UniProt P81908). In words: biochemical. As to conditions: EqBuChE IC50.
[2] abbreviates: hAChE IC50, modified Ellman method, acetylthiocholine iodide substrate, pH=7.4.
Where [3] appears, read: IC50, enzyme not named in the examples, AChE per the Table.

Each structure is given as a SMILES string.

Sequence of EqBuChE (P81908 whole entry): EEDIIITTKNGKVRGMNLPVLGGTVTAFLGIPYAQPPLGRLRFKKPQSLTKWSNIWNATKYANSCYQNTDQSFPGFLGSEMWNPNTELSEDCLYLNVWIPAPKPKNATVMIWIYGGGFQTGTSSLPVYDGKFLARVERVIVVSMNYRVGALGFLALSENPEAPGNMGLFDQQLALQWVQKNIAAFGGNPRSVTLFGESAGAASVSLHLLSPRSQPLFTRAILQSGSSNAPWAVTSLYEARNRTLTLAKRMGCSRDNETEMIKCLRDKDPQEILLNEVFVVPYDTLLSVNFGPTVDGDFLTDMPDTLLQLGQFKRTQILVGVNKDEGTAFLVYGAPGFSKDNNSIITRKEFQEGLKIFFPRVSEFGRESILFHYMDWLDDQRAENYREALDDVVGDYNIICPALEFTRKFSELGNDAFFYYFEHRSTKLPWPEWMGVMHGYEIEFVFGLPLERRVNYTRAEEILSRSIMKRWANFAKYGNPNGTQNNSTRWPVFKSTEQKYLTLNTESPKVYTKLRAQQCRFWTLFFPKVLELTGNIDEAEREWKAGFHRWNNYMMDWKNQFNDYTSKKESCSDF
T1 sequence (P22303 32-617 isoform P22303-2 limits assumed): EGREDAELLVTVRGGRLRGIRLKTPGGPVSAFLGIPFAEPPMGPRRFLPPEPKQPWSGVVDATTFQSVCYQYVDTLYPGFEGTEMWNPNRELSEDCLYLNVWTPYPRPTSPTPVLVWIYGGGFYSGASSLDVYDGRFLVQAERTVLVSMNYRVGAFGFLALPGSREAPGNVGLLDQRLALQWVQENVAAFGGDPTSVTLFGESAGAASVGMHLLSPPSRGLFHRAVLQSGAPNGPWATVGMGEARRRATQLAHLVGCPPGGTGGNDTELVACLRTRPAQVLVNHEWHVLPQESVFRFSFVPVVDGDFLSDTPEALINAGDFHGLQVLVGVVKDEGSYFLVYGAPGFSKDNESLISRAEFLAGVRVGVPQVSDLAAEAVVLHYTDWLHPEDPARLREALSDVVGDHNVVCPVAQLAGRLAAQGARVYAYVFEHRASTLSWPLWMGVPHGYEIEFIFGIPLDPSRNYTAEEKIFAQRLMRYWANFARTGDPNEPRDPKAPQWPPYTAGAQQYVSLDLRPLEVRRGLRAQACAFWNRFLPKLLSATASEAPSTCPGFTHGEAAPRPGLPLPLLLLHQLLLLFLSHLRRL

As to `COc1ccc2c(c1)CCC(Cc1cc[n+](Cc3ccccc3)cc1C(C)=O)C2=O` (stereo not drawn) [Compound 82, 2-[(3-acetyl-1-benzyl-pyridin-1-ium-4-yl)methyl]-6-methoxy-tetralin-1-one chloride], the IC50 in test [1] (setting [2]) amounted to 76 nM; at EqBuChE, 0.371 µM.

For the molecule `COc1ccc2c(c1)CCC(CC1C=CN(Cc3cccc(C)c3)C=C1C(C)=O)C2=O` (stereo not drawn) [Compound 61, 2-[[3-acetyl-1-(m-tolylmethyl)-4H-pyridin-4-yl]methyl]-6-methoxy-tetralin-1-one], it took 4.02 µM to reach half-maximal inhibition against EqBuChE (IC50).

On to `COc1cc2c(cc1OC)C(=O)C(CC1C=CN(Cc3cccc(Cl)c3)C=C1C(C)=O)C2` (stereo not drawn) [Compound 77, 2-[[3-acetyl-1-[(3-chlorophenyl)methyl]-4H-pyridin-4-yl]methyl]-5,6-dimethoxy-indan-1-one], for which the values for the IC50 (in test [1] (setting [2]); at EqBuChE) were 543 nM and 13.5 µM, respectively.

For the molecule `COc1ccc2c(c1)CCC(CC1C=CN(Cc3ccccc3C)C=C1C(C)=O)C2=O` (stereo not drawn) [Compound 59, 2-[[3-acetyl-1-(o-tolylmethyl)-4H-pyridin-4-yl]methyl]-6-methoxy-tetralin-1-one], at EqBuChE, the IC50 is 8.27 µM.

Molecule `COc1ccc(C(=O)N(CCC2C=CN(Cc3ccccc3)C=C2C(C)=O)c2ccccc2)cc1OC` (stereo not drawn) [Compound 32, N-[2-(3-acetyl-1-benzyl-4H-pyridin-4-yl)ethyl]-3,4-dimethoxy-N-phenyl-benzamide] came in with an IC50 against EqBuChE of 6.21 µM.

For `COc1ccc2c(c1)CCC(Cc1cc[n+](Cc3cccc(C)c3)cc1Br)C2=O` (stereo not drawn) [Compound 118, 2-[[3-bromo-1-(m-tolylmethyl)pyridin-1-ium-4-yl]methyl]-6-methoxy-tetralin-1-one bromide], the IC50 in test [1] (setting [2]) came out at 16.5 nM; on EqBuChE it was 0.664 µM.

For `CC(=O)C1=CN(Cc2ccccc2C)C=CC1CC1Cc2cc(C)c(C)cc2C1=O` (stereo not drawn) [Compound 166, 2-[[3-acetyl-1-(o-tolylmethyl)-4H-pyridin-4-yl]methyl]-5,6-dimethyl-indan-1-one], the IC50 in test [1] (setting [2]) worked out at 653 nM; at EqBuChE, 1.26 µM.

Take `COc1cc2c(cc1OC)C(=O)C(Cc1cc[n+](Cc3ccccc3)cc1F)CC2` (stereo not drawn) [Compound 133, 2[(1-benzyl-3-fluoro-pyridin-1-ium-4-yl)methyl]-6,7-dimethoxy-tetralin-1-one bromide]: the IC50 came to 9.1 nM in test [1] (setting [2]) and 0.508 µM against EqBuChE.

For `COc1ccc2c(c1)CCC(CC1C=CN(Cc3ccccc3C)C=C1C(C)=O)C2=O` (racemic) [Compound 160, 2-[[3-acetyl-1-(o-tolylmethyl)-4H-pyridin-4-yl]methyl]-6-methoxy-tetralin-1-one], half-maximal inhibition against EqBuChE (IC50) required 8.27 µM.

`COc1cc2c(cc1OC)C(=O)C(CC1C=CN(Cc3ccccc3)C=C1C(C)=O)CC2` (stereo not drawn) [Compound 162, 2-[(3-acetyl-1-benzyl-4H-pyridin-4-yl)methyl]-6,7-dimethoxy-tetralin-1-one]: the figures for the IC50 (in test [1] (setting [2]); against EqBuChE) were 415 nM and 3.97 µM, respectively.

At EqBuChE, `COc1ccc2c(c1)CCC(CC1C=CN(Cc3ccccc3C(F)(F)F)C=C1C(C)=O)C2=O` (stereo not drawn) [Compound 67, 2-[[3-acetyl-1-[[2-(trifluoromethyl)phenyl]methyl]-4H-pyridin-4-yl]methyl]-6-methoxy-tetralin-1-one] showed an IC50 of 3.05 µM.

Regarding `COc1ccc2c(c1)CCC(Cc1cc[n+](Cc3cccc([N+](=O)[O-])c3)cc1C(C)=O)C2=O` (stereo not drawn) [Compound 123, 2-[[3-acetyl-1-[(3-nitrophenyl)methyl]pyridin-1-ium-4-yl]methyl]-6-methoxy-tetralin-1-one bromide], the IC50 in test [1] (setting [2]) was found to be 78.6 nM; against EqBuChE, 1.32 µM.

`COc1ccc2c(c1)CCC(Cc1cc[n+](Cc3ccc(F)cc3)cc1C(C)=O)C2=O` (stereo not drawn) [Compound 129, 2-[[3-acetyl-1-[(4-fluorophenyl)methyl]pyridin-1-ium-4-yl]methyl]-6-methoxy-tetralin-1-one bromide]: the IC50 in test [1] (setting [2]) was 141 nM; at EqBuChE, 0.171 µM.

As for `COc1ccc2c(c1)CCC(Cc1cc[n+](Cc3ccccc3[N+](=O)[O-])cc1C(C)=O)C2=O` (stereo not drawn) [Compound 125, 2-[[3-acetyl-1-[(2-nitrophenyl)methyl]pyridin-1-ium-4-yl]methyl]-6-methoxy-tetralin-1-one bromide], the figures for the IC50 (in test [1] (setting [2]); against EqBuChE) were 57.7 nM and 0.592 µM, respectively.

For `COc1ccc2c(c1)CCC(Cc1cc[n+](Cc3ccccc3)cc1Br)C2=O` (stereo not drawn) [Compound 117, 2-[(1-benzyl-3-bromo-pyridin-1-ium-4-yl)methyl]-6-methoxy-tetralin-1-one bromide], the values for the IC50 (in test [1] (setting [2]); against EqBuChE) were 20 nM and 0.447 µM, respectively.

At EqBuChE, `COc1ccc2c(c1)CC(CC1C=CN(Cc3ccccc3C)C=C1C(C)=O)C2=O` (stereo not drawn) [Compound 164, 2-[[3-acetyl-1-(o-tolylmethyl)-4H-pyridin-4-yl]methyl]-5-methoxy-indan-1-one] had an IC50 of 5.44 µM.

At EqBuChE, `COc1ccc2c(c1)CCC(CC1C=CN(Cc3ccccc3Cl)C=C1C(C)=O)C2=O` (stereo not drawn) [Compound 157, 2-[[3-acetyl-1-[(2-chlorphenyl)methyl]-4H-pyridin-4-yl]methyl]-6-methoxy-tetralin-1-one] yielded an IC50 of 5.78 µM.

`COc1ccc2c(c1)CCC(CC1C=CN(Cc3cccc(F)c3)C=C1C(C)=O)C2=O` (stereo not drawn) [Compound 156, 2-[[3-acetyl-1-[(3-fluorophenyl)methyl]-4H-pyridin-4-yl]methyl]-6-methoxy-tetralin-1-one] registered an IC50 against EqBuChE of 4.4 µM.

Molecule `COc1ccc2c(c1)CCC(CC1C=CN(Cc3ccc(F)cc3)C=C1C(C)=O)C2=O` (stereo not drawn) [Compound 155, 2-[[3-acetyl-1-[(4-fluorophenyl)methyl]-4H-pyridin-4-yl]methyl]-6-methoxy-tetralin-1-one] had an IC50 against EqBuChE of 2.27 µM.

For the molecule `COc1cc2c(cc1OC)C(=O)C(CC1C=CN(Cc3ccccc3C)C=C1C(C)=O)C2` (stereo not drawn) [Compound 169, 2-[[3-acetyl-1-(o-tolylmethyl)-4H-pyridin-4-yl]methyl]-5,6-dimethoxy-indan-1-one], in test [1] (setting [2]), 428 nM corresponded to half-maximal inhibition (IC50).

The molecule `COc1cc2c(cc1OC)C(=O)C(CC1C=CN(Cc3ccccc3)C=C1C(C)=O)C2` (stereo not drawn) [Compound 34, 1-Benzyl-4-(5,6-dimethoxy-1-oxo-2,3-dihydro-1H-inden-2-yl)methyl-1,4-dihydropyridine-3-acetyl] had an IC50 in test [1] (setting [3]) of 528 nM.

As for `COc1cc2c(cc1OC)C(=O)C(Cc1cc[n+](Cc3ccccc3)cc1C(C)=O)C2` (stereo not drawn) [Compound 33, 1-Benzyl-3-actyl-4-(5,6-dimethoxy-1-oxo-2,3-dihydro-1H-inden-2-yl)methyl pyridinium bromide], in test [1] (setting [3]), inhibition was half-maximal at 18 nM (IC50).

Consider `COc1cc2c(cc1OC)C(=O)C(Cc1cc[n+](Cc3ccccc3)cc1C#N)C2` (stereo not drawn) [Compound 26, 1-Benzyl-3-cyano-4-(5,6-dimethoxy-1-oxo-2,3-dihydro-1H-inden-2-yl)methylpyridinium iodide], for which the IC50 was determined as 11.2 nM in test [1] (setting [3]) and 11.3 nM in test [1] (setting [2]).

Molecule `COc1ccc2c(c1)CCC(CC1C=CN(Cc3ccccc3F)C=C1C(C)=O)C2=O` (stereo not drawn) [Compound 55, 2-[[3-acetyl-1-[(2-fluorophenyl)methyl]-4H-pyridin-4-yl]methyl]-6-methoxy-tetralin-1-one] showed an IC50 at EqBuChE of 6.01 µM.

Consider `COc1cc2c(cc1OC)C(=O)C(CC1C=CN(Cc3ccccc3)C=C1C#N)C2` (stereo not drawn) [Compound 27, 1-Benzyl-4-(5,6-dimethoxy-1-oxo-2,3-dihydro-1H-inden-2-yl)methyl-1,4-dihydropyridine-3-carbonitrile], for which the IC50 in test [1] (setting [3]) was found to be 175 nM.

For the molecule `CC(=O)c1c[n+](Cc2ccccc2C)ccc1CC1Cc2cc(Cl)ccc2C1=O` (stereo not drawn) [Compound 136, 2-[[3-acetyl-1-(o-tolylmethyl)pyridin-1-ium-4-yl]methyl]-5-chloro-indan-1-one bromide], the IC50 in test [1] (setting [2]) stood at 262 nM.

Regarding `CC(=O)C1=CN(Cc2ccccc2C)C=CC1CC1Cc2cc3c(cc2C1=O)OCO3` (stereo not drawn) [Compound 165, 6-[[3-acetyl-1-(o-tolylmethyl)-4H-pyridin-4-yl]methyl]-5,6-dihydrocyclopenta[f][1,3]benzodioxol-7-one], it took 4.61 µM to reach half-maximal inhibition against EqBuChE (IC50).

For `COc1ccc2c(c1)CCC(CC1C=CN(Cc3ccccc3C)C=C1C(C)=O)C2=O` (single isomer, unassigned) [Compound 160-C, 2-[[3-acetyl-1-(o-tolylmethyl)-4H-pyridin-4-yl]methyl]-6-methoxy-tetralin-1-one], the IC50 on EqBuChE worked out at 4.7 µM.

Molecule `COc1ccc(C(=O)N(CCCC2C=CN(Cc3ccccc3)C=C2C(C)=O)c2ccccc2)cc1OC` (stereo not drawn) [Compound 36, N-[3-(3-acetyl-1-benzyl-4H-pyridin-4-yl)propyl]-3,4-dimethoxy-N-phenyl-benzamide] gave an IC50 at EqBuChE of 4.6 µM.

In the case of `COc1ccc2c(c1)CCC(CC1C=CN(Cc3ccccc3C)C=C1C(C)=O)C2=O` (single isomer, unassigned) [Compound 160-B, 2-[[3-acetyl-1-(o-tolylmethyl)-4H-pyridin-4-yl]methyl]-6-methoxy-tetralin-1-one], the IC50 at EqBuChE is 5.65 µM.

Molecule `COc1cc2c(cc1OC)C(=O)/C(=C/c1cc[n+](Cc3ccccc3)cc1C(C)=O)C2` [Compound 149, (2E)-2-[(3-actyl-1-benzyl-pyridin-1-ium-4-yl)methylene]-5,6-dimethoxy-indan-1-one bromide] gave an IC50 in test [1] (setting [2]) of 20.1 nM.

In turn, `CC(=O)C1=CN(Cc2ccccc2C)C=CC1CC1Cc2cc(C)ccc2C1=O` (stereo not drawn) [Compound 163, 2-[[3-acetyl-1-(o-tolylmethyl)-4H-pyridin-4-yl]methyl]-5-methyl-indan-1-one] gave an IC50 on EqBuChE of 4.82 µM.

On to `COc1cc2c(cc1OC)C(=O)C(Cc1cc[n+](Cc3ccccc3)cc1C(C)=O)CC2` (stereo not drawn) [Compound 132, 2-[(3-actyl-1-benzyl-pyridin-1-ium-4-yl)methyl]-6,7-dimethoxy-tetralin-1-one bromide], for which 24.2 nM corresponded to half-maximal inhibition in test [1] (setting [2]) (IC50).

The molecule `COc1cc2c(cc1OC)C(=O)C(Cc1cc[n+](Cc3ccccc3)cc1)C2` (stereo not drawn) [Compound 23, 1-Benzyl-4-((5,6-dimethoxy-1-oxo-2,3-dihydro-1H-inden-2-yl)methyl)pyridinium iodide] gave an IC50 in test [1] (setting [3]) of 36.8 nM.

What is called IC50 is the concentration at which inhibition is half-maximal. A high value points to weaker potency in that assay.
